# Bridges are numbered along the chain shown (N, C = ends). Where no end group is shown, it is not given here.
# Target: T1, bovine trypsin (Bos taurus, UniProt P00760)
# T1 construct: purchased Sigma-Aldrich
# T1 sequence (P00760 24-246): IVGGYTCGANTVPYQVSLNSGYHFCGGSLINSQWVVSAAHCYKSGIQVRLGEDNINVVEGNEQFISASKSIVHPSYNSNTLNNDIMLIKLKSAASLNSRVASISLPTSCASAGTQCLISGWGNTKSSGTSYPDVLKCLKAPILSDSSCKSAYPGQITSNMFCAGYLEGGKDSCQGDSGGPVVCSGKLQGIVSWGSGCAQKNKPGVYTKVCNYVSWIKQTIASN
# Assay: Inhibition kinetics with bovine trypsin (BApNA substrate)
# Assay type: biochemical
# Procedure: Michaelis-Menten constant (Km) for trypsin was calculated by using various concentrations of BApNA substrate (1 to 5 mM), and then plotting double reciprocal curve with 1/(v) and 1/[S]. The kinetic properties of IRDs were analysed over a range of concentration of inhibitors (1 μM to 1 mM). IC50 values for each inhibitor were calculated from the sigmoid curve indicating the best fit for the percentage inhibition data obtained. The values of Ki values for each inhibitor were calculated directly from IC50 values using Cheng-Prusoff's classical equation (Copeland et al., 1995).
sequence,measurement,setting,value
"QPICTNSSAGLKGCNYYNADGTFICEGESDPNHPKACPKNCDPNIAYSLC (disulfide 4-41, 14-50; cysteines drawn unpaired) [IRD-9]",Ki,"calculated from IC50 by Cheng-Prusoff's equation, read-out: Inhibition constant (Ki)",~2.2 µM
same,IC50,"substrate BApNA 1 mM, FIG. 2C",~2.2 µM
